According to ChEMBL document CHEMBL1201862, “PubChem BioAssay data set” (2004):
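Where inhibition never reached the appropriate level, the endpoint shown equals the highest concentration tested. Otherwise, values were interpolated linearly from a five-concentration, 48-hour dose response in 96-well plates. GI50 is the concentration that inhibits growth by half.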 Active and inactive are the calls of the source. No stated cut-off is given here; in the data, active = GI50 up to about 1.1 µM and inactive = higher.

Key:
Experiment in all cases: NCI-60 cell line screen, 48 h
CCRF-CEM = system: CCRF-CEM
COLO 205 = system: COLO 205
HCC 2998 = system: HCC 2998
HOP-92 = system: HOP-92
IGROV-1 = system: IGROV-1
K562 = system: K562
LXFL 529 = system: LXFL 529
MDA-MB-231 = system: MDA-MB-231
MDA-MB-435 = system: MDA-MB-435
NCI-H23 = system: NCI-H23
OVCAR-3 = system: OVCAR-3
OVCAR-8 = system: OVCAR-8
PC-3 = system: PC-3
RXF 393 = system: RXF 393
SF-268 = system: SF-268
SK-MEL-5 = system: SK-MEL-5
SN12C = system: SN12C
SNB-19 = system: SNB-19
SNB-75 = system: SNB-75
SNB-78 = system: SNB-78

O=[N+]([O-])c1ccc(C2=Nn3c(nnc3-c3ccc(Cl)cc3)SC2)o1
GI50 (CCRF-CEM): 2.65 µM (inactive)
GI50 (COLO 205): 2.05 µM (inactive)
GI50 (HCC 2998): 2.39 µM (inactive)
GI50 (HOP-92): 3.29 µM (inactive)
GI50 (IGROV-1): 6 µM (inactive)
GI50 (K562): 2.16 µM (inactive)
GI50 (LXFL 529): 4.67 µM (inactive)
GI50 (MDA-MB-231): 3.24 µM (inactive)
GI50 (MDA-MB-435): 2.08 µM (inactive)
GI50 (NCI-H23): 7.94 µM (inactive)
GI50 (OVCAR-3): 3.98 µM (inactive)
GI50 (OVCAR-8): 9.91 µM (inactive)
GI50 (PC-3): 5.32 µM (inactive)
GI50 (RXF 393): 11.5 µM (inactive)
GI50 (SF-268): 10.8 µM (inactive)
GI50 (SK-MEL-5): 10.8 µM (inactive)
GI50 (SN12C): 8.38 µM (inactive)
GI50 (SNB-19): 13.3 µM (inactive)
GI50 (SNB-75): 11.5 µM (inactive)
GI50 (SNB-78): 15.8 µM (inactive)

COc1cc([C@@H]2c3cc4c(cc3[C@@H](NC(=O)c3cccc(C#N)c3)C3COC(=O)[C@@H]32)OCO4)cc(OC)c1O (some centres not stated)
GI50 (CCRF-CEM): 0.0841 µM (active)
GI50 (COLO 205): 2.96 µM (inactive)
GI50 (HCC 2998): 1.84 µM (inactive)
GI50 (HOP-92): 0.498 µM (active)
GI50 (IGROV-1): 1.05 µM (active)
GI50 (K562): 1.73 µM (inactive)
GI50 (LXFL 529): 5.93 µM (inactive)
GI50 (NCI-H23): 0.214 µM (active)
GI50 (OVCAR-3): 2.75 µM (inactive)
GI50 (OVCAR-8): 1.19 µM (inactive)
GI50 (RXF 393): 3.18 µM (inactive)
GI50 (SF-268): 1.32 µM (inactive)
GI50 (SK-MEL-5): 0.815 µM (active)
GI50 (SN12C): 0.229 µM (active)
GI50 (SNB-19): 0.404 µM (active)
GI50 (SNB-75): 0.433 µM (active)
GI50 (SNB-78): 9.33 µM (inactive)

CC1=Nc2ccccc2SC(c2c(Cl)cccc2Cl)C1 (configuration not stated)
GI50 (CCRF-CEM): 0.304 µM (active)
GI50 (COLO 205): 1.58 µM (inactive)
GI50 (HCC 2998): 1.6 µM (inactive)
GI50 (HOP-92): 1.82 µM (inactive)
GI50 (IGROV-1): 1.77 µM (inactive)
GI50 (K562): 0.327 µM (active)
GI50 (LXFL 529): 0.5 µM (active)
GI50 (NCI-H23): 1.32 µM (inactive)
GI50 (OVCAR-3): 0.281 µM (active)
GI50 (OVCAR-8): 0.229 µM (active)
GI50 (RXF 393): 1.34 µM (inactive)
GI50 (SF-268): 1.01 µM (active)
GI50 (SK-MEL-5): 1.49 µM (inactive)
GI50 (SN12C): 1.33 µM (inactive)
GI50 (SNB-19): 1.38 µM (inactive)
GI50 (SNB-75): 1.91 µM (inactive)
GI50 (SNB-78): 3.31 µM (inactive)

CC(C)N(C(=O)C12CC3CC(CC(C3)C1)C2)C(C)C
GI50 (CCRF-CEM): > 50 µM (inactive)
GI50 (COLO 205): > 50 µM (inactive)
GI50 (HCC 2998): > 50 µM (inactive)
GI50 (HOP-92): > 50 µM (inactive)
GI50 (IGROV-1): > 50 µM (inactive)
GI50 (K562): > 50 µM (inactive)
GI50 (LXFL 529): > 50 µM (inactive)
GI50 (NCI-H23): > 50 µM (inactive)
GI50 (OVCAR-3): > 50 µM (inactive)
GI50 (OVCAR-8): > 50 µM (inactive)
GI50 (RXF 393): > 50 µM (inactive)
GI50 (SF-268): > 50 µM (inactive)
GI50 (SK-MEL-5): > 50 µM (inactive)
GI50 (SN12C): > 50 µM (inactive)
GI50 (SNB-19): > 50 µM (inactive)
GI50 (SNB-75): > 50 µM (inactive)
GI50 (SNB-78): > 50 µM (inactive)

COc1ccccc1-n1c(C)nc2ccccc2c1=O
GI50 (CCRF-CEM): > 100 µM (inactive)
GI50 (COLO 205): > 100 µM (inactive)
GI50 (HCC 2998): > 100 µM (inactive)
GI50 (HOP-92): > 100 µM (inactive)
GI50 (IGROV-1): > 100 µM (inactive)
GI50 (K562): > 100 µM (inactive)
GI50 (LXFL 529): > 100 µM (inactive)
GI50 (NCI-H23): > 100 µM (inactive)
GI50 (OVCAR-3): > 100 µM (inactive)
GI50 (OVCAR-8): > 100 µM (inactive)
GI50 (RXF 393): > 100 µM (inactive)
GI50 (SF-268): > 100 µM (inactive)
GI50 (SK-MEL-5): > 100 µM (inactive)
GI50 (SN12C): > 100 µM (inactive)
GI50 (SNB-19): > 100 µM (inactive)
GI50 (SNB-75): > 100 µM (inactive)
GI50 (SNB-78): > 100 µM (inactive)

CN(C)C(=S)/N=c1\ssc(=S)n1Cc1ccccc1
GI50 (CCRF-CEM): 0.411 µM (active)
GI50 (COLO 205): 0.288 µM (active)
GI50 (HCC 2998): 0.57 µM (active)
GI50 (HOP-92): 0.342 µM (active)
GI50 (IGROV-1): 0.632 µM (active)
GI50 (K562): 0.206 µM (active)
GI50 (LXFL 529): 0.459 µM (active)
GI50 (MDA-MB-231): 0.631 µM (active)
GI50 (MDA-MB-435): 0.0337 µM (active)
GI50 (NCI-H23): 0.465 µM (active)
GI50 (OVCAR-3): 0.168 µM (active)
GI50 (OVCAR-8): 0.51 µM (active)
GI50 (PC-3): 0.249 µM (active)
GI50 (RXF 393): 0.172 µM (active)
GI50 (SF-268): 1.82 µM (inactive)
GI50 (SK-MEL-5): 0.217 µM (active)
GI50 (SN12C): 0.867 µM (active)
GI50 (SNB-19): 1.08 µM (active)
GI50 (SNB-75): 0.203 µM (active)
GI50 (SNB-78): 0.8 µM (active)

Cc1ccc(CC(C)N)cc1 (configuration not stated)
GI50 (CCRF-CEM): > 100 µM (inactive)
GI50 (COLO 205): > 100 µM (inactive)
GI50 (HCC 2998): > 100 µM (inactive)
GI50 (HOP-92): > 100 µM (inactive)
GI50 (IGROV-1): > 100 µM (inactive)
GI50 (K562): > 100 µM (inactive)
GI50 (LXFL 529): > 100 µM (inactive)
GI50 (NCI-H23): > 100 µM (inactive)
GI50 (OVCAR-3): > 100 µM (inactive)
GI50 (OVCAR-8): > 100 µM (inactive)
GI50 (RXF 393): > 100 µM (inactive)
GI50 (SF-268): > 100 µM (inactive)
GI50 (SK-MEL-5): > 100 µM (inactive)
GI50 (SN12C): > 100 µM (inactive)
GI50 (SNB-19): > 100 µM (inactive)
GI50 (SNB-75): > 100 µM (inactive)
GI50 (SNB-78): > 100 µM (inactive)

C=CC/N=C1\N=C(C)C(C(=O)OCC)S1 (configuration not stated)
GI50 (CCRF-CEM): 7.05 µM (inactive)
GI50 (COLO 205): > 100 µM (inactive)
GI50 (HCC 2998): > 100 µM (inactive)
GI50 (HOP-92): > 100 µM (inactive)
GI50 (IGROV-1): > 100 µM (inactive)
GI50 (K562): > 100 µM (inactive)
GI50 (LXFL 529): > 100 µM (inactive)
GI50 (NCI-H23): > 100 µM (inactive)
GI50 (OVCAR-3): > 100 µM (inactive)
GI50 (OVCAR-8): > 100 µM (inactive)
GI50 (RXF 393): > 100 µM (inactive)
GI50 (SF-268): > 100 µM (inactive)
GI50 (SK-MEL-5): > 100 µM (inactive)
GI50 (SN12C): > 100 µM (inactive)
GI50 (SNB-19): > 100 µM (inactive)
GI50 (SNB-75): > 100 µM (inactive)
GI50 (SNB-78): > 100 µM (inactive)

COc1ccc2nc3ccccc3c(NCCCCCCN(CCCl)CCCl)c2c1
GI50 (CCRF-CEM): 0.0107 µM (active)
GI50 (COLO 205): 0.014 µM (active)
GI50 (HCC 2998): 0.226 µM (active)
GI50 (HOP-92): 0.124 µM (active)
GI50 (IGROV-1): 0.148 µM (active)
GI50 (K562): 0.019 µM (active)
GI50 (LXFL 529): 0.107 µM (active)
GI50 (MDA-MB-231): 0.486 µM (active)
GI50 (MDA-MB-435): 0.0482 µM (active)
GI50 (NCI-H23): 0.15 µM (active)
GI50 (OVCAR-3): 0.0627 µM (active)
GI50 (OVCAR-8): 0.0627 µM (active)
GI50 (PC-3): 0.0514 µM (active)
GI50 (RXF 393): 0.187 µM (active)
GI50 (SF-268): 0.0649 µM (active)
GI50 (SK-MEL-5): 0.304 µM (active)
GI50 (SN12C): 0.0348 µM (active)
GI50 (SNB-19): 0.328 µM (active)
GI50 (SNB-75): 0.108 µM (active)
GI50 (SNB-78): 0.223 µM (active)
